The text below walks through data of patent US20150139957A1, “GROWTH ENHANCING ADDITIVE FROM POMEGRANATE PLANT FOR POULTRY FEED” (GANIR (1992) LTD., priority 2012, published 2015).

For assay [1], the system named is Ross male broilers. In words: Example 1: 42 d broiler trial, antibiotic in the feed present, absent or replaced. Type of assay: in vivo. Particulars: PE1 4 kg per ton feed. Here is the method: The effects of presence/absence/replacement of the antibiotics in the feed were examined. A group of 2000 Ross male broilers were randomly divided into four treatments and fed a mesh diet ad libitum. […] Body weight, feed intake and mortality were measured during the 42 d broiler trial. At the end of the trial, feed conversion was calculated and % cumulative mortality was recorded. Results indicated a 4.1% improved feed conversion in those birds which received an antibiotic growth promoter (Maxus™), compared to negative control (1.758 and 1.834 respectively). The addition of pomegranate extract powder improved feed conversion by 4.9% as compared to negative control treatment (1.744 and 1.834 respectively). Mortality results at end of trial were as follows: negative control 4.1%, antibiotic growth promoter 3.6% and pomegranate extract powder 1.4%.

Assay [2] relates to Ross male broilers. In words: Example 2: broiler trial testing the efficacy of a taste masking agent. The format is in vivo. Particulars: alternative probiotic growth additive, treatment 5. The source says: The objective of this trial was to test the efficacy of a taste masking agent. The trial examined the performance parameters in 2000 Ross male broilers randomly divided into 5 treatment groups. All broilers were fed mash feed ad libitum. Treatment 1, negative control, without addition of any growth promoter in feed, treatment 2, positive control with an antibiotic growth promoter avilamycin (Maxus™), treatment 3 received 2 kg additive PE1 of the invention per ton feed, treatment 4 received 2 kg additive PE1 of the invention per ton feed with a taste masking agent including thaumatin, and treatment 5 received an alternative probiotic growth additive (lactobacillus). Use of the masking agents improved broiler body weight results from 28-44 d period by 4.2% (1480 g vs 1420 g). Final body weight results at 44 d was improved by 3.6% in those broilers that received the masking agent as compared to those without. (2748 vs 2652). Feed conversion improved by 5.4% in those broilers receiving masking agent (1.84 instead of 1.94 kg/kg).

For the compound `COC[C@H]1O[C@@H](OC2OC[C@@H]3O[C@]4(O[C@H]3[C@H]2OC(=O)C(C)C)O[C@H](C)[C@@](O)(C(C)=O)[C@@H]2OCO[C@H]24)[C@@H](OC)[C@@H](O)[C@@H]1O[C@@H]1O[C@H](C)[C@H](OC)[C@H](O[C@H]2C[C@@]3(C)OC4(C[C@@H](O)[C@H](O[C@H]5C[C@@H](O)[C@H](OC(=O)c6c(C)c(Cl)c(O)c(Cl)c6OC)[C@@H](C)O5)[C@@H](C)O4)O[C@@H]3[C@@H](C)O2)[C@H]1O` (stereo partly shown) [avilamycin], in the assay with Ross male broilers [1] (42 d trial, negative control 4.1%), the “cumulative mortality at end of trial” value is on record as 3.6%. Besides, the “improved feed conversion compared to negative control” value in the assay with Ross male broilers [1] (end of 42 d trial, diet ad libitum) came to 4.1%. In the assay on Ross male broilers [1] (end of 42 d trial, negative control 1.834), this compound came in with a feed conversion of 1.758.
Consider lactobacillus, for which, in the assay on Ross male broilers [2], the “body weight throughout the trial versus both pomegranate extract groups” value is recorded as “consistently lower”.
